Source: the supplement of paper PMC10307832

How the values were obtained:
Assay in all cases: relative viability (nuclei count vs DMSO), 5 days (fraction); higher = more cells survive
AGI-6780 + OSI-027 = compound: O=C(Nc1cccc(C(F)(F)F)c1)Nc1cc(S(=O)(=O)NC2CC2)ccc1-c1ccsc1 [AGI-6780] + COc1cccc2cc(-c3nc([C@H]4CC[C@H](C(=O)O)CC4)n4ncnc(N)c34)[nH]c12 [OSI-027] (partner 0.5 µM)
Outline: (§1)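 One day after seeding in 1536-well plates, lung cancer cell lines were dosed by pin tool. Dosing was either single-drug or a fixed anchor-drug dose plus five library-drug doses (not always all listed) in √10 steps. After 5 days, nuclei were stained in one fix-and-stain step and counted on 4× images, and relative viability is the nuclei count of treated wells over that of vehicle wells, given as the median of duplicate plates.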

AGI-6780 + Luminespib = compound: O=C(Nc1cccc(C(F)(F)F)c1)Nc1cc(S(=O)(=O)NC2CC2)ccc1-c1ccsc1 [AGI-6780] + CCNC(=O)c1noc(-c2cc(C(C)C)c(O)cc2O)c1-c1ccc(CN2CCOCC2)cc1 [Luminespib] (partner 0.01 µM)
Outline: as §1

AGI-6780 + Lapatinib = compound: O=C(Nc1cccc(C(F)(F)F)c1)Nc1cc(S(=O)(=O)NC2CC2)ccc1-c1ccsc1 [AGI-6780] + CS(=O)(=O)CCNCc1ccc(-c2ccc3ncnc(Nc4ccc(OCc5cccc(F)c5)c(Cl)c4)c3c2)o1 [Lapatinib] (partner 2 µM)
Outline: as §1

AGI-6780 + Linsitinib = compound: O=C(Nc1cccc(C(F)(F)F)c1)Nc1cc(S(=O)(=O)NC2CC2)ccc1-c1ccsc1 [AGI-6780] + C[C@]1(O)C[C@@H](c2nc(-c3ccc4ccc(-c5ccccc5)nc4c3)c3c(N)nccn32)C1 [Linsitinib] (partner 1 µM)
Outline: as §1

Cell Line | relative viability (AGI-6780 + OSI-027; first compound 0.08 µM) | relative viability (AGI-6780 + OSI-027; first compound 0.253 µM) | relative viability (AGI-6780 + OSI-027; first compound 0.8 µM) | relative viability (AGI-6780 + OSI-027; first compound 2.53 µM) | relative viability (AGI-6780 + OSI-027; first compound 8 µM) | relative viability (AGI-6780 + Luminespib; first compound 0.08 µM) | relative viability (AGI-6780 + Luminespib; first compound 0.253 µM) | relative viability (AGI-6780 + Luminespib; first compound 0.8 µM) | relative viability (AGI-6780 + Luminespib; first compound 2.53 µM) | relative viability (AGI-6780 + Luminespib; first compound 8 µM) | relative viability (AGI-6780 + Lapatinib; first compound 0.08 µM) | relative viability (AGI-6780 + Lapatinib; first compound 0.253 µM) | relative viability (AGI-6780 + Lapatinib; first compound 0.8 µM) | relative viability (AGI-6780 + Lapatinib; first compound 2.53 µM) | relative viability (AGI-6780 + Lapatinib; first compound 8 µM) | relative viability (AGI-6780 + Linsitinib; first compound 0.08 µM) | relative viability (AGI-6780 + Linsitinib; first compound 0.253 µM) | relative viability (AGI-6780 + Linsitinib; first compound 0.8 µM) | relative viability (AGI-6780 + Linsitinib; first compound 2.53 µM) | relative viability (AGI-6780 + Linsitinib; first compound 8 µM)
NCI-H727 | 0.639 | 0.821 | 0.617 | 0.494 | 0.685 | 0.322 | 0.545 | 0.347 | 0.287 | 0.468 | 1.05 | 0.961 | 0.93 | 0.712 | 0.811 | 0.285 | 0.331 | 0.325 | 0.235 | 0.285
NCI-H647 | 0.784 | 0.657 | 0.673 | 0.668 | 0.714 | 0.0935 | 0.181 | 0.12 | 0.103 | 0.118 | 0.919 | 1.18 | 1.06 | 0.955 | 1.3 | 1.17 | 1.19 | 1.12 | 1.14 | 1.2
EKVX | 0.663 | 0.665 | 0.721 | 0.649 | 0.716 | 0.916 | 0.877 | 0.989 | 0.918 | 0.847 | 0.234 | 0.19 | 0.217 | 0.192 | 0.216 | 1.09 | 1.03 | 0.966 | 1.05 | 1.04
NCI-H838 | 0.424 | 0.434 | 0.357 | 0.378 | 0.39 | 0.374 | 0.353 | 0.339 | 0.303 | 0.274 | 1.18 | 0.99 | 1.05 | 0.871 | 1.23 | 1.12 | 0.964 | 1.07 | 0.851 | 0.908
NCI-H1355 | 0.444 | 0.456 | 0.422 | 0.303 | 0.401 | 0.75 | 0.791 | 0.686 | 0.408 | 0.624 | 1.03 | 1.04 | 0.944 | 0.685 | 0.96 | 0.842 | 0.835 | 0.831 | 0.665 | 0.821
LK-2 | 0.172 | 0.224 | 0.189 | – | 0.197 | 0.189 | 0.169 | 0.183 | – | 0.202 | 0.867 | 0.951 | 1.14 | – | 0.958 | 0.617 | 0.646 | 0.536 | – | 0.522
NCI-H2009 | 0.667 | 0.7 | 0.575 | 0.668 | 0.696 | 1.01 | 1.04 | 0.994 | 0.988 | 0.946 | 0.952 | 0.889 | 0.976 | 0.917 | 0.959 | 1.18 | 1.21 | 1.12 | 1.25 | 1.15
PC-3 [JPC-3] | 0.776 | 0.748 | 0.781 | 0.691 | 0.76 | 0.59 | 0.71 | 0.727 | 0.629 | 0.67 | 0.467 | 0.513 | 0.451 | 0.416 | 0.48 | 0.995 | 0.952 | 0.904 | 0.926 | 0.953
NCI-H1563 | 0.784 | 0.752 | 0.805 | 0.666 | 0.728 | 0.585 | 0.537 | 0.577 | 0.492 | 0.542 | 1.03 | 0.924 | 0.987 | 0.881 | 0.903 | 1.27 | 1.22 | 1.24 | 1.11 | 1.08
LCLC-97TM1 | 0.596 | 0.697 | 0.492 | 0.398 | 0.643 | 0.814 | 0.703 | 0.876 | 0.71 | 0.714 | 0.803 | 1.61 | 1.14 | – | 1 | 0.177 | 0.252 | 0.21 | – | 0.186
NCI-H460 | 0.752 | 0.639 | 0.845 | 0.574 | 0.694 | 0.0337 | 0.0309 | 0.0296 | 0.0322 | 0.0345 | 0.872 | 1.03 | 1.03 | 1.07 | 1.11 | 0.796 | 0.788 | 0.936 | 0.741 | 0.72
UMC-11 | 0.488 | 0.452 | 0.473 | – | 0.509 | 1.16 | 1 | 1.22 | – | 1.11 | 1.03 | 0.92 | 1.09 | – | 1.16 | 0.868 | 0.968 | 1.08 | – | 0.987
BEN | 0.311 | 0.298 | 0.321 | 0.28 | 0.304 | 0.355 | 0.331 | 0.37 | 0.33 | 0.358 | 0.569 | 0.703 | 0.91 | – | 0.637 | 0.894 | 0.845 | 1.07 | – | 0.971
NCI-H1651 | 0.659 | 0.684 | 0.731 | 0.691 | 0.661 | 0.809 | 0.893 | 0.919 | 0.744 | 0.804 | 0.83 | 0.911 | 0.959 | 0.805 | 1.04 | 0.959 | 0.966 | 0.982 | 0.876 | 0.837
SW 1573 | 0.685 | 0.656 | 0.801 | – | 0.562 | 0.462 | 0.398 | 0.216 | 0.216 | 0.287 | 1.3 | 1.29 | 1.08 | 0.957 | 1.06 | 0.818 | 0.911 | 0.868 | 0.652 | 0.831
NCI-H1975 | 0.813 | 0.751 | 0.767 | – | 0.67 | 0.259 | 0.184 | 0.222 | 0.263 | 0.161 | 0.861 | 1.01 | 0.801 | 0.875 | 0.951 | 1.11 | 0.986 | 0.912 | 1.07 | 0.969
NCI-H650 | 0.509 | 0.59 | 0.462 | 0.443 | 0.475 | 0.673 | 0.874 | 0.865 | 0.793 | 0.946 | 0.922 | 1.07 | 1.17 | 0.859 | 1.05 | 0.906 | 0.867 | 0.992 | 0.883 | 0.895
